Assay: xn = mol fraction of the nth substance listed

O=[N+]([O-])c1ccccc1 + COC(C)=O
viscosity [mPa·s], 101 kPa
Conditions	298.15 K	308.15 K
x2 = 0.0418	1.689	1.459
x2 = 0.1491	1.449	1.261
x2 = 0.2508	1.25	1.095
x2 = 0.3515	1.076	0.949
x2 = 0.4403	0.941	0.834
x2 = 0.4882	0.875	0.777
x2 = 0.5492	0.796	0.71
x2 = 0.649	0.681	0.611
x2 = 0.7499	0.58	0.523
x2 = 0.8513	0.492	0.446
x2 = 0.9379	0.426	0.388

O=[N+]([O-])c1ccccc1 + CCCCCC
Conditions	viscosity [mPa·s]
293.17 K, 101.32 kPa, x1 = 0.183	0.408
293.27 K, 101.32 kPa, x1 = 0.453	0.761
293.65 K, 101.32 kPa, x1 = 0.419	0.697
293.66 K, 101.32 kPa, x1 = 0.732	1.09
293.77 K, 101.32 kPa, x1 = 0.287	0.552
293.77 K, 101.32 kPa, x1 = 0.36	0.552
294.1 K, 101.32 kPa, x1 = 0.559	0.799
294.57 K, 101.32 kPa, x1 = 0.183	0.4
294.75 K, 101.32 kPa, x1 = 0.419	0.651
294.75 K, 101.32 kPa, x1 = 0.629	0.881
294.85 K, 101.32 kPa, x1 = 0.453	0.692
295.17 K, 101.32 kPa, x1 = 0.287	0.54
295.17 K, 101.32 kPa, x1 = 0.36	0.54
295.88 K, 101.32 kPa, x1 = 0.732	1.05
296.05 K, 101.32 kPa, x1 = 0.559	0.775
296.3 K, 101.32 kPa, x1 = 0.183	0.395
296.4 K, 101.32 kPa, x1 = 0.453	0.665
296.45 K, 101.32 kPa, x1 = 0.629	0.861
296.57 K, 101.32 kPa, x1 = 0.287	0.529
296.57 K, 101.32 kPa, x1 = 0.36	0.529
296.85 K, 101.32 kPa, x1 = 0.419	0.621
297.45 K, 101.32 kPa, x1 = 0.732	1.03
298.07 K, 101.32 kPa, x1 = 0.559	0.747
298.15 K, 101.32 kPa, x1 = 0.36	0.516
298.25 K, 101.32 kPa, x1 = 0.287	0.516
298.25 K, 101.32 kPa, x1 = 0.629	0.836
298.35 K, 101.32 kPa, x1 = 0.419	0.605
298.55 K, 101.32 kPa, x1 = 0.453	0.645
303.15 K, 101 kPa, x2 = 0.072	1.319
303.15 K, 101 kPa, x2 = 0.148	1.016
303.15 K, 101 kPa, x2 = 0.246	0.8236
303.15 K, 101 kPa, x2 = 0.318	0.6679
303.15 K, 101 kPa, x2 = 0.391	0.5916
303.15 K, 101 kPa, x2 = 0.51	0.4845
303.15 K, 101 kPa, x2 = 0.618	0.4107
303.15 K, 101 kPa, x2 = 0.735	0.3659
303.15 K, 101 kPa, x2 = 0.862	0.3216

CCCCCO + CCCCCCC
Conditions	viscosity [mPa·s]
293.15 K, 100 kPa, x2 = 0.0249	3.71
293.15 K, 100 kPa, x2 = 0.081	3.099
293.15 K, 100 kPa, x2 = 0.1471	2.521
293.15 K, 100 kPa, x2 = 0.259	1.798
293.15 K, 100 kPa, x2 = 0.3365	1.429
293.15 K, 100 kPa, x2 = 0.3987	1.196
293.15 K, 100 kPa, x2 = 0.4734	0.975
293.15 K, 100 kPa, x2 = 0.5627	0.776
293.15 K, 100 kPa, x2 = 0.6484	0.641
293.15 K, 100 kPa, x2 = 0.734	0.544
293.15 K, 100 kPa, x2 = 0.8184	0.474
293.15 K, 100 kPa, x2 = 0.9043	0.42
293.2 K, 101 kPa, x1 = 0.3	0.655
293.8 K, 101 kPa, x1 = 0.5	0.924
293.9 K, 101 kPa, x1 = 0.051	0.491
298.15 K, 100 kPa, x2 = 0.0249	3.218
298.15 K, 100 kPa, x2 = 0.081	2.702
298.15 K, 100 kPa, x2 = 0.1471	2.211
298.15 K, 100 kPa, x2 = 0.259	1.591
298.15 K, 100 kPa, x2 = 0.3365	1.277
298.15 K, 100 kPa, x2 = 0.3987	1.076
298.15 K, 100 kPa, x2 = 0.4734	0.884
298.15 K, 100 kPa, x2 = 0.5627	0.712
298.15 K, 100 kPa, x2 = 0.6484	0.594
298.15 K, 100 kPa, x2 = 0.734	0.507
298.15 K, 100 kPa, x2 = 0.8184	0.445
298.15 K, 100 kPa, x2 = 0.9043	0.396
298.15 K, 101.33 kPa, x1 = 0.0652	0.4117
298.15 K, 101.33 kPa, x1 = 0.1304	0.4449
298.15 K, 101.33 kPa, x1 = 0.2489	0.5244
298.15 K, 101.33 kPa, x1 = 0.3595	0.6427
298.15 K, 101.33 kPa, x1 = 0.4654	0.8116
298.15 K, 101.33 kPa, x1 = 0.5682	1.041
298.15 K, 101.33 kPa, x1 = 0.6617	1.338
298.15 K, 101.33 kPa, x1 = 0.7552	1.713
298.15 K, 101.33 kPa, x1 = 0.8805	2.418
298.15 K, 101.33 kPa, x1 = 0.9606	3.057
303.15 K, 100 kPa, x2 = 0.0249	2.804
303.15 K, 100 kPa, x2 = 0.081	2.365
303.15 K, 100 kPa, x2 = 0.1471	1.945
303.15 K, 100 kPa, x2 = 0.259	1.415
303.15 K, 100 kPa, x2 = 0.3365	1.145
303.15 K, 100 kPa, x2 = 0.3987	0.971
303.15 K, 100 kPa, x2 = 0.4734	0.805
303.15 K, 100 kPa, x2 = 0.5627	0.655
303.15 K, 100 kPa, x2 = 0.6484	0.551
303.15 K, 100 kPa, x2 = 0.734	0.474
303.15 K, 100 kPa, x2 = 0.8184	0.417
303.15 K, 100 kPa, x2 = 0.9043	0.371
308.15 K, 100 kPa, x2 = 0.0249	2.453
308.15 K, 100 kPa, x2 = 0.081	2.08
308.15 K, 100 kPa, x2 = 0.1471	1.72
308.15 K, 100 kPa, x2 = 0.259	1.262
308.15 K, 100 kPa, x2 = 0.3365	1.03
308.15 K, 100 kPa, x2 = 0.3987	0.879
308.15 K, 100 kPa, x2 = 0.4734	0.739
308.15 K, 100 kPa, x2 = 0.5627	0.604
308.15 K, 100 kPa, x2 = 0.6484	0.515
308.15 K, 100 kPa, x2 = 0.734	0.438
308.15 K, 100 kPa, x2 = 0.8184	0.39
308.15 K, 100 kPa, x2 = 0.9043	0.349
308.15 K, 101.33 kPa, x1 = 0.0652	0.368
308.15 K, 101.33 kPa, x1 = 0.1304	0.3956
308.15 K, 101.33 kPa, x1 = 0.2489	0.4627
308.15 K, 101.33 kPa, x1 = 0.3595	0.5523
308.15 K, 101.33 kPa, x1 = 0.4654	0.6821
308.15 K, 101.33 kPa, x1 = 0.5682	0.841
308.15 K, 101.33 kPa, x1 = 0.6617	1.062
308.15 K, 101.33 kPa, x1 = 0.7552	1.353
308.15 K, 101.33 kPa, x1 = 0.8805	1.931
308.15 K, 101.33 kPa, x1 = 0.9606	2.382
313.15 K, 100 kPa, x2 = 0.0249	2.155
313.15 K, 100 kPa, x2 = 0.081	1.836
313.15 K, 100 kPa, x2 = 0.1471	1.526
313.15 K, 100 kPa, x2 = 0.259	1.132
313.15 K, 100 kPa, x2 = 0.3365	0.936
313.15 K, 100 kPa, x2 = 0.3987	0.798
313.15 K, 100 kPa, x2 = 0.4734	0.674
313.15 K, 100 kPa, x2 = 0.5627	0.557
313.15 K, 100 kPa, x2 = 0.6484	0.485
313.15 K, 100 kPa, x2 = 0.734	0.414
313.15 K, 100 kPa, x2 = 0.8184	0.366
313.15 K, 100 kPa, x2 = 0.9043	0.327

CCCCCCCCCCCCCC + CCCCCCC
101 kPa, x2 = 0.5
Conditions	viscosity [mPa·s]
298 K	1.031
318 K	0.7754

ClC(Cl)=C(Cl)Cl + CCCCOCCO
viscosity [mPa·s], 101.33 kPa
Conditions	x1 = 0.1139	x1 = 0.2084	x1 = 0.3166	x1 = 0.4172	x1 = 0.5191	x1 = 0.6215	x1 = 0.7098	x1 = 0.8124	x1 = 0.9087
303.15 K	2.167	1.954	1.716	1.51	1.327	1.17	1.049	0.939	0.854
313.15 K	1.689	1.543	1.381	1.24	1.113	0.998	0.913	0.831	0.771

O=[N+]([O-])c1ccccc1 + CCC(C)O
viscosity [mPa·s], 100 kPa
Conditions	x1 = 0.081	x1 = 0.16	x1 = 0.24	x1 = 0.35	x1 = 0.4949	x1 = 0.56	x1 = 0.65	x1 = 0.74	x1 = 0.8205	x1 = 0.9399
293.15 K	3.138	2.694	2.349	2.041	1.854	1.838	1.859	1.915	1.975	2.078
298.15 K	2.591	2.246	1.983	1.74	1.619	1.612	1.647	1.719	1.78	1.861
303.15 K	2.232	1.989	1.801	1.632	1.528	1.521	1.539	1.58	1.638	1.708
308.15 K	1.905	1.731	1.598	1.476	1.408	1.405	1.422	1.459	1.498	1.577
313.15 K	1.627	1.489	1.384	1.289	1.248	1.252	1.275	1.32	1.379	1.457
318.15 K	1.411	1.309	1.233	1.169	1.147	1.155	1.18	1.224	1.274	1.351
323.15 K	1.233	1.159	1.104	1.058	1.044	1.055	1.081	1.122	1.168	1.253
